Entries after “also recorded” stand apart in the source; their conditions may differ.
Assays:
[1] = tested on: layer V pyramidal neurons; assay: Spike-timing-dependent LTP, whole-cell recordings from slices of treated adult mice; type: in vivo
Description: All mice were treated with either WYE125132 or vehicle for a period of 2 weeks after which the animals were euthanized and thalamocortical slices were prepared. Briefly, animals were anesthetized, decapitated and the brain quickly placed into ice-cold dissection buffer containing (in mM): 75 sucrose, 87 NaCl, 2.5 KCl, 1.25 NaH2PO4, 0.5 CaCl2, 7 MgCl2 6H2O, 25 NaHCO3, 10 dextrose, bubbled with 95% O2/5% CO2 (pH 7.4). Slices (400 μm) were prepared with a vibratome (Leica, VT1200S), placed in 33-35° C. for artificial cerebrospinal fluid (ACSF, in mM: 124 NaCl, 2.5 KCl, 1.25 NaH2PO4, 2.5 CaCl2, 1.5 MgSO4 7H2O, 26 NaHCO3, and 10 dextrose) for <30 min; then returned to room temperature >1 hr before use. Slices were then transferred to the recording chamber and perfused (2.0-2.5 ml min-1) with oxygenated ACSF at 33-35° C. and given 30 min to stabilize. Somatic whole-cell recordings were made from layer 5 pyramidal cells in voltage and current clamp mode with a Multiclamp 700B amplifier (Molecular Devices). Selection was based on morphology and electrophysiological criteria. Patch pipettes (3-8MΩ) contained a current clamp solution. Data were filtered at 2 kHz, digitized at 10 kHz and analyzed with Clampfit. Cells were excluded from analysis if Ri or Rs changed by >25% over the course of the recording. Excitatory post-synaptic currents or potentials (EPSCs/Ps) were evoked by extracellular stimulation (0.01-1 ms, 1-10V) with a 4×1 array of electrodes placed in layer 4, and straddling the patched layer 5 neuron. Across mice we compared spontaneous and evoked inhibitory responses by clamping the membrane potential of the cell to sub-threshold levels. Furthermore, we compared inhibition generated by each stimulation electrode, to the corresponding amount of excitation when the cell was held at −80 mV. Lastly, we tested Spike-Timing Dependent Plasticity (STDP).
(§1) euthanized. For the electrophysiology and western blot rescue experiments, adult mice were gavaged for 14 consecutive days after which they were euthanized.
Whole cell recordings were made from layer V pyramidal cells of the temporal cortex. Focal extracellular stimulation was applied and excitatory and inhibitory currents were measured across various stimulation intensities to assess E:I balance. For plasticity experiments, extracellular stimulation was paired with postsynaptic action potentials (elicited by current injection via the recording electrode) less than 10 ms after the onset of the EPSP 60 times at 0.1 hz. Baseline strength was compared to synaptic strength 6-15 mins after spike pairing.
We investigated whether we could reverse the impairment in neuronal network activity and plasticity by targeting the overactivation of the mTOR pathway with WYE125132. […]

[2] = tested on: glutamate receptor subunits GluR1, GluR2, NR1, NR2A, NR2B and mGluR5; assay: Immunoblot of glutamate receptor subunits in PFC homogenates after treatment; type: in vivo, mice; settings: for expression of glutamate receptor subunits altered in mutants: Cntnap2-/- and Cntnap2+/- mice aged 5-8 months
Description: as §1
Western blot analysis of mouse brain tissue and immunocytochemistry in human brain tissue was performed using standard methods.
We also evaluated whether treatment with WYE126132 reverses the alterations in the expression of the glutamate receptor subunits found in Cntnap2 mutant mice. Mice aged 5-8 months were treated for consecutive days.

Cntnap2 mutant mice = assay: Social interaction test (10-minute interval) and grooming; type: in vivo
Description: Cntnap2 mutant and WT mice were obtained from heterozygous crossings and were born with the expected Mendelian frequencies. The three obtained genotypes were housed together. Mice were treated with p.o. gavaging once per day with either WYE125132 (10 mg/kg) or vehicle. All procedures involving animals were performed in accordance with the Columbia University/New York State Psychiatric Institute animal research committee.
WYE125132 (Chemscene) was administered by a daily p.o. gavaging in a volume of 10 ml/kg. For all behavioral experiments, dams were treated from PO to P12 after which individual pups were gavaged on a daily basis going forward. Mice also received drug treatment on the days of testing, at least 1 hour prior the experiment. For the two-photon and cell size quantitation studies, mice were gavaged from P12 to p35, after they were
Mice were marked with ear tagging. Experimenters were blinded to the genotype during testing. Behavioral tests were performed in the New York State Psychiatric Institute behavioral test core facility.
Detailed measurements of interaction between pairs of mice placed together in standard cages provide insights into reciprocal social interactions (Silverman et al., 2010). We examined (i) whether juvenile Cntnap2 mutant mice display decreased social interaction over a 10-minute interval and (ii) whether mutant mice have reduced tendency to approach novel social stimuli, as evidenced by social inhibition in the first minute of the tested interval (Curley et al., 2009). The first minute of this social interaction paradigm represents the phase when preference for social novelty is normally established. There were significant differences between genotypes in the amount of time spent on social investigation of the stimulus animal both in the first minute of the test (One-Way ANOVA F2,38=5.01, P<0.05; FIG. 15A) as well as over the entire 10-minute test (F2,38=3.27, P<0.05; FIG. 15A). Both Cntnap2^+/− and Cntnap2^−/− mice investigated the stimulus mouse for less time than their wild-type (WT) littermates (Dunnett post-hoc tests, all P<0.05).
Mutant mice were treated with WYE125132 or vehicle by daily gavaging.

Q: `CNC(=O)Nc1ccc(-c2nc(N3CC4CCC(C3)O4)c3cnn(C4CCC5(CC4)OCCO5)c3n2)cc1` [WYE125132] was tested. Which “LTP induction (in words)” value ([1]; Caspr2-/- / Cntnap2 mutant mice treated with WYE125132 for 2 weeks) did it give?
A: Its value is “robust LTP; also recorded: successfully induced LTP”.

Q: What about the “LTP induction (in words)” value ([1]; WT littermates treated with WYE125132 for 2 weeks) of the same molecule?
A: The value was “robust LTP”.

Q: What about the “synaptic modification after spike pairing (example recording)” value ([1]; WYE125132-treated Cntnap2-/- mouse, single example whole-cell recording) of the same molecule?
A: The value was 35.1 % increase.

Q: What about the “synaptic modification after spike pairing (LTP summary)” value ([1]; WYE125132-treated Cntnap2-/- mutant mice, n=8, 6-15 min after pairing, error s.e.m.) of the same molecule?
A: Its value is 45.4±16.4 % increase.

Q: And the “expression of glutamate receptor subunits altered in mutants” value [2]?
A: Its value is “entirely reversed; also recorded: complete normalization of all glutamate receptor subunits”.

Q: What about the “expression of glutamate receptor subunits altered in mutants” value ([2]; listed as WYE126132) of the same molecule?
A: The value was “complete normalization of all glutamate receptor subunits”.

Q: What about the “expression of glutamate receptor subunits in WT animals” value ([2]; WT mice) of the same molecule?
A: The value was “no effects”.

Q: What about the “number (total frequency) of social interactions over the whole 10-minute interval” value (Cntnap2 mutant mice; Cntnap2+/- mice, daily gavage, P<0.05) of the same molecule?
A: Its value is “rescued; also recorded: corrects”.

Q: What about the “social interaction deficits in the first minute of testing” value (Cntnap2 mutant mice; Cntnap2+/- mice, daily gavage, versus vehicle, P<0.01) of the same molecule?
A: Its value is “reversal of the social interaction deficits; also recorded: corrects the social interaction deficits”.

Q: And the “maximum grooming bout duration” value (Cntnap2 mutant mice; Cntnap2+/- mutant mice, WYE125132 versus vehicle, P<0.05)?
A: The value was “increased significantly”.

Q: What about the “time spent sniffing the stimulus mouse in the very first part of the test” value (Cntnap2 mutant mice; Cntnap2 mutant mice) of the same molecule?
A: Its value is “increases the time”.

Q: And the “time spent sniffing the stimulus mouse in the very first part of the test” value (Cntnap2 mutant mice; WT littermates)?
A: The value was “no such effect”.

Reference: US20160089377A1, “THERAPEUTIC TARGETING OF THE MTOR PATHWAY IN NEURODEVELOPMENTAL AND NEUROPSYCHIATRIC DISEASE” (THE TRUSTEES OF COLUMBIA UNIVERISTY IN THE CITY OF NEW YORK, priority 2013, published 2016)
